Source: paper PMC11352258, “The Influence of Betulin and Its Derivatives on Selected Colorectal Cancer Cell Lines’ Viability and Their Antioxidant Systems” (Cells, 2024)
Several values for one entry are separate records, joined by “and”; a condition that tells them apart may be missing. Identical values can stand only once. Like-named read-outs stand apart in the source and are kept apart here.

Assays:
HCT116 cells = experiment: MTT cytotoxicity assay, HCT116; format: cell-based; settings: for IC50: read-out: IC50 value
From the text: (§1) Control cells were not treated with the compounds.

HT29 cells = experiment: MTT cytotoxicity assay, HT29; format: cell-based; settings: for IC50: read-out: IC50 value
From the text: as §1

Caco2 cells = experiment: MTT cytotoxicity assay, Caco2; format: cell-based; settings: Homo sapiens, Caco-2, 24 h, read-out: IC50 value
SW1116 cells [1] = experiment: MTT cytotoxicity assay, SW1116; settings: for IC50: read-out: IC50 value
Method: (§2) Six colorectal cancer cell lines, RKO, HT29, DLD-1, HCT116, Caco2 and SW1116 (CRL-2577, HTB-38, CCL-221, CCL-247, HTB-37, CCL-233; ATCC, Manassas, VA, USA, respectively, for CRC lines), and one normal cell line, CCD-841CoN (CRL-1790, ATCC, USA), were routinely cultured at 37 °C in a 5% CO2 incubator (Direct Heat CO2; Thermo Scientific, Waltham, MA, USA) in cell line-appropriate culture medium according to the manufacturer’s recommendations. Eagle’s minimum essential medium (EMEM) was used to culture RKO, Caco2 and CCD-841CoN lines, while McCoy’s 5A medium was used for HT29 and HCT116 lines. DLD-1 cells were grown in RPMI-1640 medium, whereas SW1116 cells were maintained in Leibovitz’s L-15 medium. All culture media were supplemented with 10% fetal bovine serum (EuroClone, Milan, Italy), and gentamycin at the concentration […] (BioWhittaker, Lonza, Basel, Switzerland) was also applied to prevent culture contamination.
(§3) For this purpose, cells were exposed to the test compound for 24 h at concentrations of 0.1, 1, 10, 20, 50 and 100 μg/mL. Control cells were not treated with the compounds. MTT (0.25 mg/mL) was then added to the cultures and incubated for 3 h at 37 °C. After a time, the cells were washed with phosphate buffered saline (PBS), and next, formazan dye was dissolved in 100 μL of dimethyl sulfoxide (Sigma-Aldrich, St Louis, MO, USA). Absorbance was measured at 540 nm using a Wallac 1420 VICTOR microplate reader (PerkinElmer, Waltham, MA, USA).

RKO cells [2] = experiment: MTT cytotoxicity assay, RKO
Method: as §2, §3

CCD-841CoN cells = experiment: cells; format: cell-based; settings: 24 h; for IC50: read-out: IC50 value
From the text: as §1

DLD-1 cells = experiment: MTT cytotoxicity assay, DLD-1; format: cell-based; settings: for IC50: read-out: IC50 value
From the text: as §1

RKO cells [3] = experiment: Total antioxidant capacity (ABTS+), RKO; format: cell-based; settings: 10 µg/mL, 24 h
Method: (§4) In addition, two colorectal cancer cell lines, RKO and SW1116, were distinguished based on a different response to the EB5 derivative. To perform subsequent analyses, the selected CRC lines were treated with EB5 derivative at a concentration of 10 µg/mL for 24 h. Untreated cells were used as a negative control. Three biological replicates were performed.
(§5) To examine the antioxidant capacity of the cells as well as lipid peroxidation and to evaluate the activity of antioxidant enzymes, the cells were suspended in lysis buffer (containing 4 mg of […]™ Protease Inhibitor Cocktail and 10 µL of Phosphatase Inhibitor Cocktail 3 in 1 mL of PBS; Sigma-Aldrich, St Louis, MO, USA). Subsequently, the cells were placed in liquid nitrogen for 30 min, followed by storage at −80 °C until further analysis.
The ABTS+ radical cation was used to assess the total antioxidant capacity (TAC) of the tested cells. The principle of the method is based on the reduction of the formed blue-green chromophore ABTS+ as a result of the reaction of ABTS (Sigma-Aldrich, St Louis, MO, USA) with potassium persulphate (Sigma-Aldrich, St Louis, MO, USA). The degree of decolorization of the ABTS+ radical cation depends on the antioxidant activity of the cells and is determined as a function of concentration and time in relation to Trolox reactivity (TEAC-Trolox equivalent antioxidant capacity).

[4] = system: SOD2 gene expression in RKO cells; experiment: SOD2 mRNA, real-time RT-qPCR, RKO; format: cell-based; settings: 10 µg/mL, 24 h
Method: as §4
(§6) Total RNA from treated cells was extracted using TRIzol reagent (Sigma-Aldrich, St Louis, MO, USA) according to the manufacturer’s instructions. The obtained RNA was assessed qualitatively and quantitatively by agarose gel electrophoresis and by spectrophotometric measurement using MaestroNano MN-913 (MaestroGen Inc., Las Vegas, NV, USA), respectively. The obtained extracts provided the starting material for the assessment of genes changes at the mRNA level.
(§7) Changes in the expression of SOD1, SOD2, CAT and GPX3 genes involved in antioxidant systems were assessed by real-time RT-qPCR using a LightCycler® 480 System apparatus (Roche, Basel, Switzerland). A commercially purchased GoTaq® 1-Step RT-qPCR System (Promega, Madison, WI, USA) was used, while the primers and reaction conditions were the same as in the previous study performed by Kruszniewska-Rajs et al.. GAPDH was used as the reference gene. The mRNA expression level studied genes were then determined by the 2^−ΔCt relative quantification method. All samples were tested in triplicate. The specificity of the reaction was evaluated based on the melting temperature curve, as well as using electrophoresis of the amplification products in a 2% agarose gel.

SW1116 cells [5] = experiment: Lipid peroxidation, MDA assay, SW1116; format: cell-based; settings: SW1116, 10 µg/mL, 24 h
Method: (§8) In addition, two colorectal cancer cell lines, RKO and SW1116, were distinguished based on a different response to the EB5 derivative. […] Untreated cells were used as a negative control. Three biological replicates were performed. To examine the antioxidant capacity of the cells as well as lipid peroxidation and to evaluate the activity of antioxidant enzymes, the cells were suspended in lysis buffer (containing 4 mg of […]™ Protease Inhibitor Cocktail and 10 µL of Phosphatase Inhibitor Cocktail 3 in 1 mL of PBS; Sigma-Aldrich, St Louis, MO, USA). Subsequently, the cells were placed in liquid nitrogen for 30 min, followed by storage at −80 °C until further analysis. To assess the level of lipid peroxidation, the Malondialdehyde Assay Kit (Aoxre BioSciences, Burlingame, CA, USA) was used, according to the manufacturer’s recommendations.

[6] = system: catalase (CAT) activity in SW1116 cells; experiment: CAT activity in SW1116 cells; format: cell-based; settings: SW1116, 10 µg/mL, 24 h
Method: as §4, §5
Superoxide dismutase (SOD), glutathione peroxidase (GPx) and catalase (CAT) activities were assessed using a commercially purchased Cayman Chemicals Superoxide Dismutase Assay Kit, a Cayman Chemicals Glutathione Peroxidase Assay Kit and a Catalase Assay Kit (Cayman Chemicals, Ann Arbor, MI, USA), respectively, according to the manufacturer’s recommendations and based on a previous study. The cell supernatant from previously prepared cell lysates of the tested lines provided material for further analyses. The level of change in absorbance was measured spectrophotometrically at the appropriate wavelength for the assay, i.e., for SOD in the range 440–460 nm, for GPx at 340 nm and for CAT at 540 nm.

[7] = system: catalase (CAT) activity in RKO cells; experiment: CAT activity in RKO cells; format: cell-based; settings: 10 µg/mL, 24 h
Method: as §4, §5
Superoxide dismutase (SOD), glutathione peroxidase (GPx) and catalase (CAT) activities were assessed using a commercially purchased Cayman Chemicals Superoxide Dismutase Assay Kit, a Cayman Chemicals Glutathione Peroxidase Assay Kit and a Catalase Assay Kit (Cayman Chemicals, Ann Arbor, MI, USA), respectively, according to the manufacturer’s recommendations and based on a previous study. […] The level of change in absorbance was measured spectrophotometrically at the appropriate wavelength for the assay, i.e., for SOD in the range 440–460 nm, for GPx at 340 nm and for CAT at 540 nm.

RKO cells [8] = experiment: Lipid peroxidation, MDA assay, RKO; format: cell-based; settings: 10 µg/mL, 24 h
Method: as §8

[9] = system: CAT gene expression in RKO cells; experiment: CAT mRNA, real-time RT-qPCR, RKO; format: cell-based; settings: 10 µg/mL, 24 h
Method: as §4, §6, §7

[10] = system: SOD1 gene expression in RKO cells; experiment: SOD1 mRNA, real-time RT-qPCR, RKO; format: cell-based; settings: 10 µg/mL, 24 h
Method: as §4, §6, §7

[11] = system: CAT gene expression in SW1116 cells; experiment: CAT mRNA, real-time RT-qPCR, SW1116; format: cell-based; settings: SW1116, 10 µg/mL, 24 h
Method: as §4, §6, §7

[12] = system: colorectal cancer cell lines RKO, HT29, DLD-1, HCT116, Caco2 and SW1116; experiment: MTT cytotoxicity assay, statements over all tested cell lines
Method: as §2, §3

[13] = Homo sapiens, 24 h, read-out: IC50 value

C=C(C)[C@@H]1CC[C@]2(COC(=O)c3cn(CP(=O)(OCC)OCC)nn3)CC[C@]3(C)C(CCC4[C@@]5(C)CC[C@H](O)C(C)(C)C5CC[C@]43C)C12 (some centres unmarked) [TR50]
IC50 (HCT116 cells; Homo sapiens, HCT-116, 24 h): 6.71 µg/mL and 9.76 µM | IC50 (HT29 cells; Homo sapiens, HT-29, 24 h): 10.3 µg/mL and 14.9 µM | IC50 (Caco2 cells): 13 µg/mL and 18.9 µM | IC50 (SW1116 cells [1]; Homo sapiens, SW 1116, 24 h): 33.1 µg/mL and 48.1 µM | sensitivity of cells to the compound (SW1116 cells [1]; SW1116, 10 µg/mL, in comparison with other CRC lines and normal colonocytes): lack of sensitivity | IC50 (RKO cells [2]; [13]): 4.33 µg/mL and 6.29 µM | IC50 (CCD-841CoN cells; Homo sapiens, CCD-841CoN): 18.3 µg/mL and 26.6 µM | IC50 (DLD-1 cells; Homo sapiens, DLD-1, 24 h): 7.87 µg/mL and 11.4 µM

N.N.[Cl][Pt][Cl] [Cisplatin, cisplatin]
IC50 value (HCT116 cells; HCT 116, MTT, 24 h): 3.02 µg/mL | IC50 (HCT116 cells; HCT 116, MTT, 24 h): 10.1 µM | reduction in TAC compared to the control cells (RKO cells [3]): about 23.6% | SOD2 gene expression vs. 5FU-treated cells [4]: higher expression | SOD2 gene expression vs. untreated cells [4]: statistically significant increase in SOD2 gene expression | IC50 value (HT29 cells; HT29, MTT, 24 h): >100 µg/mL | IC50 (HT29 cells; HT29, MTT, 24 h): > 333 µM | MDA level compared to 5FU-treated cells (SW1116 cells [5]): higher level of MDA | MDA level compared to betulin-treated cells (SW1116 cells [5]): higher level of MDA | MDA level compared to the control (SW1116 cells [5]): higher level of MDA | IC50 value (SW1116 cells [1]; SW1116, MTT, 24 h): >100 µg/mL | IC50 (SW1116 cells [1]; SW1116, MTT, 24 h): > 333 µM | catalase activity compared to cells treated with EB5 [6]: higher catalase activity | catalase activity compared to cells treated with betulin [6]: higher catalase activity | catalase activity compared to the control [6]: higher catalase activity | CAT activity compared to the betulin-treated cells [7]: slight decrease | IC50 value (RKO cells [2]; MTT, 24 h): 6.35 µg/mL | IC50 (RKO cells [2]; read-out: IC50 value, MTT, 24 h): 21.2 µM | MDA level compared to the control group (RKO cells [8]): did not cause changes | CAT gene expression vs. 5FU [9]: significant increase in expression | IC50 value (CCD-841CoN cells; CCD-841CoN normal cells, MTT): 27.59 µg/mL | IC50 (CCD-841CoN cells; CCD-841CoN normal cells, MTT): 91.9 µM | SOD1 gene expression vs. 5FU-treated cells [10]: statistically significant increase in expression | SOD1 gene expression vs. non-treated cells [10]: statistically significant increase in expression | IC50 value (DLD-1 cells; DLD-1, MTT, 24 h): 27.72 µg/mL | IC50 (DLD-1 cells; DLD-1, MTT, 24 h): 92.4 µM | CAT gene expression vs. 5FU [11]: difference in the expression

C#CC(=O)OC[C@]12CC[C@@H](/C(C)=C/P(=O)(OCC)OCC)C1C1CCC3[C@@]4(C)CC[C@H](O)C(C)(C)C4CC[C@@]3(C)[C@]1(C)CC2 (some centres unmarked) [ECH147, 29-diethoxyphosphoryl-28-propynylobetulin]
IC50 (HCT116 cells; Homo sapiens, HCT-116, 24 h): 3.24 µg/mL and 5.59 µM | cytotoxic effect compared with the other tested compounds ([12]; MTT, 24 h): strongest cytotoxic effect | selectivity towards cancer cells ([12]; cancer lines vs normal cells): does not show selectivity towards cancer cells | change in cell viability ([12]; each of the tested cell lines, concentrations higher than 1 µg/mL): significant decrease in cell viability | IC50 (HT29 cells; Homo sapiens, HT-29, 24 h): 0.63 µg/mL and 1.09 µM | IC50 (Caco2 cells): 1.4 µg/mL and 2.43 µM | IC50 (SW1116 cells [1]; Homo sapiens, SW 1116, 24 h): 5.21 µg/mL and 8.99 µM | IC50 (RKO cells [2]; [13]): 1.18 µg/mL and 2.04 µM | IC50 (DLD-1 cells; Homo sapiens, DLD-1, 24 h): 0.69 µg/mL and 1.19 µM
